Data on twelve compounds can be found in patent publication US4634707A, “5-Pyrimidinecarboxamides and treatment of leukemia and tumors therewith” (Uniroyal Chemical Company, priority 1984, dated 1987).

This test relates to L1210 leukemia. Nature of the test: NCI 3LE31, i.p.-implanted L1210 lymphoid leukemia. It counts as in vivo, DBA/2 mice. Here is the method:
The spectrum of antitumor activity of the compound of Example 1 was determined employing a number of standard National Cancer Institute (NCI) protocols. The antitumor activity was determined in vivo against several different tumors, employing various treatment schedules and routes of administration.
Samples of the test compounds of Examples 1-10 and a number of structurally-related control compounds were tested in accordance with National Cancer Institute test protocol 3LE31 (NCI Protocol 1.100, Cancer Chemotherapy Reports Part 3, Vol. 3, No. 2, September 1972) to determine the effects of the several compounds on i.p.-implanted L1210 leukemia (J. Nat'l. Cancer Inst. 13(5):1328, 1953). Each test involved implantation of the leukemia cells in six DBA/2 mice, one sex per experiment, the male mice weighing a minimum of 18 grams and the female mice weighing a minimum of 17 grams, and all of the test animals being within a three gram weight range. The test compound was administered by i.p. injections, in 0.1 ml. doses of diluted ascitic fluid (10^5 cells per dose), commencing one day after the tumor implant and continuing daily for nine days.
The test animals were weighed and survivors recorded on a regular basis during a thirty day test period. The ratio of survival time for the treated and control animals (T/C) was determined as a percentage.
The tests were carried out at varying dosage levels and with varying numbers of repetitions, depending upon the results obtained with each test compoud. […] A reproducible T/C of 150% or higher is considered significant activity.
The number of mice "cured", viz., those surviving from each animal test group after the thirty day test period, is indicated in parenthesis following the T/C percentage data in Table III below: […]

[1] abbreviates: Mus musculus, L1210, ip, 25 mg/kg i.p. daily for nine days, read-out: T/C % (survival time treated/control).
Setting [2] is: Mus musculus, L1210, ip, 50 mg/kg i.p. daily for nine days, read-out: T/C % (survival time treated/control).
The mark [3] stands for this setting: Mus musculus, L1210, ip, 100 mg/kg i.p. daily for nine days, read-out: T/C % (survival time treated/control).
Setting [4] is: Mus musculus, L1210, ip, 200 mg/kg i.p. daily for nine days, read-out: T/C % (survival time treated/control).
The mark [5] stands for this setting: 25 mg/kg i.p. daily for nine days.
Where [6] appears, read: 50 mg/kg i.p. daily for nine days.
Where [7] appears, read: 100 mg/kg i.p. daily for nine days.
Where [8] appears, read: 200 mg/kg i.p. daily for nine days.

With `O=c1[nH]c(=S)[nH]c(O)c1C(=S)Nc1ccccc1` [Control W], the response vs control in vivo at 25 mg/kg under setting [1] is 101%. Further, the response vs control in vivo at 50 mg/kg under setting [2] worked out at 102%. Moreover, the response vs control in vivo at 100 mg/kg under setting [3] worked out at 94%. Moreover, under setting [4], the response vs control in vivo at 200 mg/kg was 103%.

With `Cn1c(=S)[nH]c(O)c(C(=O)Nc2cccc([N+](=O)[O-])c2)c1=O` [Control J], the “T/C % (survival time treated/control)” value is on record as 100% under setting [5], 94% under setting [6], 104% under setting [7] and 101% under setting [8].

As to `O=C(Nc1ccccc1)c1c(O)[nH]c(=S)n(-c2ccccc2)c1=O` [Control P], the “T/C % (survival time treated/control)” value is, setting by setting: under setting [5], 110%; under setting [6], 116%; under setting [7], “Toxic”; under setting [8], “Toxic”.

Consider `COc1ccc(C)cc1NC(=O)c1c(O)[nH]c(=S)[nH]c1=O` [Example 10, 1,2,3,4-tethydro-6-hydroxy-N-(2-methoxy-5-methylphenyl)-4-oxo-2-thioxo-5-pyrimidinecarboxamide], for which the response vs control in vivo at 25 mg/kg under setting [1] turned out to be 110%. In addition, under setting [2], the response vs control in vivo at 50 mg/kg was 130%. For the same compound, the response vs control in vivo at 100 mg/kg under setting [3] worked out at 113%. Also, the response vs control in vivo at 200 mg/kg under setting [4] amounted to 113%.

As for `O=C(Nc1ccccc1)c1c(O)[nH]c(=S)n(-c2ccccc2)c1=O` [Control O], under setting [8], the “T/C % (survival time treated/control)” value is “Toxic”. Moreover, the response vs control in vivo at 25 mg/kg under setting [1] worked out at 104%. Besides, the response vs control in vivo at 50 mg/kg under setting [2] was found to be 115%. Further, the response vs control in vivo at 100 mg/kg under setting [3] was 123%.

As for `O=C(Nc1ccc(Cl)cc1)c1c(O)[nH]c(=S)[nH]c1=O` [Control A], the “T/C % (survival time treated/control)” value under setting [8] is recorded as “Toxic”. In addition, the “T/C” value (3LE31, upon further testing) was “less than 125%”. Further, for the setting “3LE31, reproducible T/C of 150% or higher is considered significant activity”, the “activity in i.p.-implanted lymphoid leukemia test (in words)” value was “inactive”. Also, the response vs control in vivo at 25 mg/kg under setting [1] was found to be 110%. The response vs control in vivo at 50 mg/kg under setting [2] was determined as 121%. Also, the response vs control in vivo at 100 mg/kg under setting [3] was determined as 125%.

For `Cc1ccc(C)c(NC(=O)c2c(O)n(C)c(=S)n(C)c2=O)c1` [Control N], the “T/C % (survival time treated/control)” value under setting [6] was “Toxic”, the “T/C % (survival time treated/control)” value under setting [7] is given as “Toxic” and the “T/C % (survival time treated/control)” value under setting [8] was “Toxic”. Moreover, under setting [1], the response vs control in vivo at 25 mg/kg was determined as 103%.

Consider `O=C(Nc1ccccc1)c1c(O)n(-c2ccccc2)c(=S)n(-c2ccccc2)c1=O` [Control S], for which the response vs control in vivo at 25 mg/kg under setting [1] was 97%. Besides, the response vs control in vivo at 50 mg/kg under setting [2] is 100%.

Turning to `Cn1c(O)c(C(=O)Nc2ccccc2)c(=O)n(C)c1=S` [Control L], the “T/C % (survival time treated/control)” value runs as follows: under setting [5], 108%; under setting [6], “Toxic”; under setting [7], “Toxic”; under setting [8], “Toxic”.

With `Cn1c(O)c(C(=O)Nc2ccc(Cl)cc2)c(=O)n(C)c1=S` [Control M], the “T/C % (survival time treated/control)” value is, setting by setting: under setting [5], “Toxic”; under setting [6], “Toxic”; under setting [7], “Toxic”; under setting [8], “Toxic”. Moreover, the response vs control in vivo at 1.5 mg/kg (Mus musculus, L1210, ip, 1.5 mg/kg i.p. daily for nine days, read-out: T/C % (survival time treated/control)) was 106%. Moreover, the response vs control in vivo at 3 mg/kg (Mus musculus, L1210, ip, 3 mg/kg i.p. daily for nine days, read-out: T/C % (survival time treated/control)) was 92%. The response vs control in vivo at 6 mg/kg (Mus musculus, L1210, ip, 6 mg/kg i.p. daily for nine days, read-out: T/C % (survival time treated/control)) is 95%. For the same compound, where the note is “Mus musculus, L1210, ip, 12 mg/kg i.p. daily for nine days, read-out: T/C % (survival time treated/control)”, the response vs control in vivo at 12 mg/kg stood at 106%. For the same compound, the response vs control in vivo at 0.75 mg/kg (Mus musculus, L1210, ip, .75 mg/kg i.p. daily for nine days, read-out: T/C % (survival time treated/control)) was determined as 102%.

For `Cc1ccccc1NC(=O)c1c(O)[nH]c(=O)[nH]c1=O` [Control D], under setting [1], the response vs control in vivo at 25 mg/kg is 108%. Further, the response vs control in vivo at 50 mg/kg under setting [2] was found to be 104%. Also, the response vs control in vivo at 100 mg/kg under setting [3] is 106%. Moreover, under setting [4], the response vs control in vivo at 200 mg/kg was 124%.

`Cn1c(=S)[nH]c(O)c(C(=O)Nc2cccc([N+](=O)[O-])c2)c1=O` [Control I]: the response vs control in vivo at 25 mg/kg under setting [1] was 102%. Moreover, under setting [2], the response vs control in vivo at 50 mg/kg was 98%. Further, under setting [3], the response vs control in vivo at 100 mg/kg came out at 102%. Further, the response vs control in vivo at 200 mg/kg under setting [4] was found to be 112%.
